Values quoted from earlier work, collected in US20040024041A1, “Dermal therapeutic system containing non-steroidal antiphlogistics with selective cox-2 inhibition” (priority 2000, published 2004).

Columns and labels:
[1] = patients receiving rofecoxib therapy vs patients receiving other non-steroidal anti-inflammatory drugs as comparison substance

CS(=O)(=O)c1ccc(C2=C(c3ccccc3)C(=O)OC2)cc1 [rofecoxib, 3-phenyl-4-[4-methylsulfonylphenyl]-2-(5H)furanone]
perforations, ulcers and bleeds in the upper gastrointestinal tract [1]: significantly fewer | percentage of patients with endoscopically detectable gastroduodenal ulcers (after 12 weeks of treatment, rofecoxib 25 or 50 mg/day vs placebo): comparable percentage | cumulative incidence of gastroduodenal ulcers (over 12 and 24 weeks, respectively, vs ibuprofen 2 400 mg/day): significantly less
